# “And” between values parts separate entries of the source, which are not always exact repeats. Equal entries are not always repeated. Where two headings read alike, the source gives them in different places.
# Assays:
# [1] = set-up: method as in earlier work; settings: humans, non-compartmental analysis, population mean (CV), ref 4 (supplement; Watts et al. 2020), cited from earlier work
# P. falciparum 3D7 [2] = assay: PK/PD model of parasite killing, parameters common to humans and mice; format: in vivo, Plasmodium falciparum
# From the text: (§1) To model the drug action in both mice and humans, we used a pharmacodynamic (PD) model in which viable parasites are growing at rate g (per hour) and killed at rate κ (per hour). The dead parasites are then removed at a separate rate, δ (per hour). […] The latter observation is consistent with observations of slower parasite clearance after drug treatment in the NSG mouse model compared with human infection ([27]).
# (§2) To model the cyclical growth of P. falciparum parasites, we used a previously published age-structured model of parasite growth, which tracks the distribution of parasite stages developing in time ([40]): (3) vT(a,T)+va(a,T)=0 where, v is the density of parasites at time T postinfection and age a. In this equation, subscripts indicate the partial derivative of v with respect to the subscript variable. […] The constant PMF is the parasite multiplication factor. Since parasites older than approximately 24 h of age are sequestered and no longer in circulation, the total number of circulating viable parasites (V) at any time is given by V(T)= ∫0asv(a,T)da where as is the age that parasites sequester. Importantly, as has been reported previously, the Plasmodium falciparum 3D7 strain used in these studies has an approximately 40-h blood-stage cycle ([41], [42]), so the maximum age of parasites is taken to be A=40 h.
# (§3) We extended an existing age-structured model of parasite growth ([43]) to include drug killing of parasites. […] The model has two parasite compartments: one for viable parasites and one for nonviable parasites. The model of drug killing of viable parasites and host removal of nonviable parasites after treatment is defined as follows: vt(a,t)+va(a,t)= −κ(a,C(t))×v(a,t) (4) ut (a,t)=κ(a,C(t))×v(a,t)−δ×u(a,t) for a>0 where v(a,t) and u(a,t) are the density of viable and nonviable parasites of age a at time t posttreatment, respectively. […] The parameter δ is the rate of host removal of nonviable parasites. The total concentrations of circulating V(t) viable and nonviable U(t) parasites at time t are defined as follows: V(t)= ∫0aSv(a,t)da U(t)= ∫0aSu(a,t)da where as is the parasite sequestration age. We assume that the parasites are not sequestering in mice, in which case, as=A (the length of the parasite blood-stage life cycle), and that parasites sequester at as=A/2 in humans ([46]).
# (§4) The maximum killing rate m(a) is a function of the parasite age since very-late-stage parasites are not killed by treatment ([47]).
# (§5) As in previous studies, the age above which late-stage parasites survive treatment (aschiz) is taken to be the final 4 h of a 48-h life cycle ([48], [49]). The malaria parasite strain used in this study has a 40-h life cycle ([42], [46]), and we take aschiz as the last 4/48th of the life cycle. […]
# [3] = DHA pharmacokinetics in NSG mice after oral artesunate, one-compartment model; format: in vivo; settings: mouse, whole blood
# Experimental: A volume of 25 μL of whole-blood samples was collected via the tail vein from individual mice at 0.75, 1.5, 3, 8, 26, 50, and 74 h from the 50-mg/kg 4-daily-dose group and at 0.75, 1.5, 3, and 8 h from the 200-mg/kg single-dose group. […] Samples were vortexed for 20 s before being stored at −80°C.
# Briefly, the model is defined as follows: (2) C(t)=D×ka/Vd/F(ka−CL/Vd) ×[exp⁡(−CL/Vd×(t−tlag))− exp⁡(−ka×(t−tlag)) ], where Vd/F (L) is the apparent volume of distribution, tlag (h) is the lag time between administration and absorption, CL/F (L/h) is the apparent drug clearance, ka is the rate of drug absorption, and D is the dose given to each subject. The model was fit with and without a lag for the absorption.
# We used a least-square approach when fitting the ex vivo regrowth assay to estimate the concentration of viable parasites. […] When fitting the pharmacodynamic model, we first fit the pretreatment parasite concentration data for each human subject with the parasite growth model (equation 3) and estimated the distribution of parasite stages at the time of treatment and the parasite multiplication factor (PMF) when drug is not present. […]
# [4] = mouse, literature, cited from earlier work
# [5] = DHA pharmacokinetics in human volunteer infection study after artesunate; format: in vivo, humans
# From the text: (§6) The human data used in this study were obtained from a randomized clinical trial (ACTRN12617001394336) ([24]) and the associated exploratory viability study ([19]). Briefly, 5 volunteers were infected by intravenous injection of blood-stage 3D7 P. falciparum parasites.
# Briefly, the model is defined as follows: (2) C(t)=D×ka/Vd/F(ka−CL/Vd) ×[exp(−CL/Vd×(t−tlag))− exp(−ka×(t−tlag)) ], where Vd/F (L) is the apparent volume of distribution, tlag (h) is the lag time between administration and absorption, CL/F (L/h) is the apparent drug clearance, ka is the rate of drug absorption, and D is the dose given to each subject. The model was fit with and without a lag for the absorption. The absorption was too fast to be observed in mice, and the one-compartment open model without a lag term fit the murine data best.
# A one-compartment model with a first-order absorption and a lag, fit the human data best.
# We used a least-square approach when fitting the ex vivo regrowth assay to estimate the concentration of viable parasites. […] When fitting the pharmacodynamic model, we first fit the pretreatment parasite concentration data for each human subject with the parasite growth model (equation 3) and estimated the distribution of parasite stages at the time of treatment and the parasite multiplication factor (PMF) when drug is not present. For the mice, pretreatment parasitemia curves were not detailed enough to allow fitting to estimate parasite life stage distributions and PM: instead, we estimated the PMF for each mouse from the in vivo recrudescence curves after treatment (fitting a tobit regression model using R package censReg) (Fig. 3), and we estimated the life stage distribution using the life stages from flow cytometric analysis (outlined in section C in the supplemental material). […] We fit this model to all data on parasite viability and total circulating parasitemia from mice and humans simultaneously with a variety of parameters constrained to be equivalent between mice and humans, in order to test which parameters, if any, were required to be different between the two hosts in order to best explain the data. We compared these models using the likelihood ratio test (for nested models) and the Akaike information criterion (AIC). A model with fewer parameters was deemed a better fit of the data unless the likelihood ratio test yielded a P value of […] (for nested models) or the difference in AIC of >10 for nonnested models.
# P. falciparum 3D7 [6] = assay: PK/PD model of parasite killing and clearance, parameters for humans; format: in vivo; settings: human data from ref 19
# From the text: as §1, §6, §2, §3
# The maximum killing rate m(a) is a function of the parasite age since very-late-stage parasites are not killed by treatment ([47]). […]
# P. falciparum 3D7 [7] = assay: PK/PD model of parasite killing and clearance, parameters for mice; format: in vivo
# From the text: as §1, §2, §3, §4, §5
# [8] = tested on: P. falciparum Pf3D7^0087/N9; assay: Artesunate efficacy in the murine P. falciparum NSG model: parasitemia and parasite viability (ex vivo regrowth assay); set-up: species or system Plasmodium falciparum; settings: NSG mice, first 24 h, single oral dose 200 vs 50 mg/kg
# Experimental: Compound efficacy was assessed in the murine P. falciparum NSG model, as described by Jimenez-Diaz et al. ([38]). […] These mice had been engrafted with human erythrocytes 14 days earlier (generously provided by the Blood Bank in Zürich, Switzerland). Prior to compound treatment, mice were intravenously infected with 2 × 10^5 P. falciparum Pf3D7^0087/N9-infected erythrocytes (day 0). On day 3 after infection, mice were randomly allocated to treatments that were administered orally. Parasitemia was measured by microscopy. Chimerism was monitored by flow cytometry using anti-murine erythrocyte TER119 monoclonal antibody (Pharmingen, San Diego, CA) and SYTO-16 and then analyzed by flow cytometry in serial blood samples (2 μL) collected every day until the completion of the experiment. Parasite recrudescence was detected by microscopy.
# Prior to each treatment and after 8, 24, 48, 72, 96 and 168 h, 40 μL of blood was collected using a heparinized capillary and transferred into 10 mL of 37°C preheated medium. The suspension was centrifuged (5 min at 290 × g) and the supernatant discarded.
# For the ex vivo regrowth assay (ERA), 10-μL pellets of the washed mouse blood sample were processed as described above for the IRA.
# To estimate parasite viability, we fitted the data from the regrowth assay with a mathematical model of parasite growth as described in reference [19]. […]
# [9] = model with EC50 and γ common to humans and mice
# [10] = model with Emax and γ common to humans and mice
# [11] = assumes average mouse weight of 25 g
# [12] = humans, one compartment model, population estimate (95% CI)
structure (smiles),measurement,setting,value
"C[C@H]1[C@@H](O)O[C@@H]2O[C@@]3(C)CC[C@H]4[C@H](C)CC[C@@H]1[C@@]24OO3 [DHA, dihydroartemisinin]","V/F, apparent volume of distribution",[1]; ART-R infection (n = 13),221.1 (53.6) L
same,Dose-Normalised AUC,[1]; ART-R infection,6.3 (89.9) μg h L^-1 mg^-1
same,"V/F, apparent volume of distribution",[1]; ART-S infection (n = 9),310.3 (119.4) L
same,Dose-Normalised AUC,[1]; ART-S infection,7.5 (33.2) μg h L^-1 mg^-1
same,EC50,"P. falciparum 3D7 [2]; Plasmodium falciparum, 3D7, model with EC50 and γ common to humans and mice, different Emax, read-out: EC50, drug concentration to reach the half-maximum killing rate",0.0074 ng/mL
same,"γ, Hill coefficient",P. falciparum 3D7 [2]; [9],0.70
same,"γ, Hill coefficient",P. falciparum 3D7 [2]; [10],0.41
same,"Emax, maximum killing rate","P. falciparum 3D7 [2]; model with Emax and γ common to humans and mice, different EC50s",1.34 h⁻¹
same,half-life,"[3]; mice, computed from CL and Vd, read-out: t1/2, half-clearance time (converted)",24 min
same,Vd/F,"[3]; read-out: Vd/F, apparent volume of distribution",0.55 L
same,"CL/F, apparent clearance",[4]; [11],1.53 L/h
same,"Vd/F, apparent volume of distribution",[4]; [11],0.91 L
same,"CL/F, apparent clearance",[4],1.98 L/h
same,"Vd/F, apparent volume of distribution",[4],0.85 L
same,"t1/2, half-clearance time",[4],0.41 ([50]) h
same,half-life,"[5]; human, blood, 2 mg/kg, humans, computed from CL and Vd, read-out: t1/2, half-clearance time (converted)",27 min
same,Vd/F,"[5]; human, blood, 2 mg/kg, read-out: Vd/F, apparent volume of distribution",166 L
same,"CL/F, apparent clearance","[5]; humans (n = 5), artesunate 2 mg/kg, population estimate (95% CI), one-compartment model fitted to data from reference 24","254.5 L/h and 254.5 (144.5, 364.5) L/h"
same,Dose-Normalised AUC,"[5]; humans, one compartment model, average of volunteers, bootstrap confidence interval","5.34 (3.83, 6.52) μg h L^-1 mg^-1"
same,"ka, absorption rate",[5]; [12],2.29 h⁻¹
same,"tlag, lag-time",[5]; [12],"0.62 (0.4, 0.83) h"
same,EC50,"P. falciparum 3D7 [6]; Plasmodium falciparum, 3D7, model with Emax and γ common to humans and mice, read-out: EC50H, drug concentration to reach the half-maximum killing rate in humans",0.0025 ng/mL
same,"EmaxH, maximum killing rate in humans",P. falciparum 3D7 [6]; [9],1.45 h⁻¹
same,EC50,"P. falciparum 3D7 [7]; Plasmodium falciparum, 3D7, model with Emax and γ common to humans and mice, read-out: EC50M, drug concentration to reach the half-maximum killing rate in mice",1.32 ng/mL
same,"EmaxM, maximum killing rate in mice",P. falciparum 3D7 [7]; [9],0.74 h⁻¹
C[C@H]1[C@H](OC(=O)CCC(=O)O)O[C@@H]2O[C@@]3(C)CC[C@H]4[C@H](C)CC[C@@H]1[C@@]24OO3 [artesunate],increase in the decline in total parasitemia on increasing dose from 50 to 200 mg/kg,[8],2.2 fold
same,increase in the decline in viability on increasing dose from 50 to 200 mg/kg,[8]; regrowth assay,23.9 fold
same,"δH, dead parasite clearance rate in humans",P. falciparum 3D7 [6]; [9],0.18 h⁻¹
same,"δH, dead parasite clearance rate in humans",P. falciparum 3D7 [6]; [10],0.18 h⁻¹
same,"δM, dead parasite clearance rate in mice",P. falciparum 3D7 [7]; [9],0.097 h⁻¹
same,"δM, dead parasite clearance rate in mice",P. falciparum 3D7 [7]; [10],0.097 h⁻¹
